Measurements reported in the NIST ThermoML archive (doi:10.1021/je034017j).

How the values were obtained:
[1] = Liquid; for mass density: 101 kPa; for viscosity: 101.33 kPa
[2] = xn = mol fraction of the nth substance listed; conditions: 101 kPa, Liquid

CCCCCCO [hexan-1-ol]
[1]
Conditions	mass density [kg/m3]	viscosity [mPa·s]
293.15 K	818.84	5.412
298.15 K	–	4.596
303.15 K	811.56	3.964
313.15 K	804.28	2.966

CCCCCCO [hexan-1-ol] + CCCCC(=O)OC
[2], Capillary tube (Ostwald / Ubbelohde) method, x2 = 0
Conditions	kinematic viscosity [m2/s]
293.15 K	6.609e-06
303.15 K	4.885e-06
313.15 K	3.688e-06

[2], x2 = 0
Conditions	mass density [kg/m3]
293.15 K	818.84
303.15 K	811.56
313.15 K	804.28

CCCCCCO [hexan-1-ol] + CCCCCCC(=O)OC
[2], x2 = 0
Conditions	kinematic viscosity [m2/s]	mass density [kg/m3]
293.15 K	6.61e-06	818.84
303.15 K	4.88e-06	811.56
313.15 K	3.69e-06	804.28

CCCCCCC(=O)OC [methyl heptanoate]
[1]
Conditions	mass density [kg/m3]	viscosity [mPa·s]
283.15 K	–	1.32
293.15 K	879.96	1.112
298.15 K	–	1.023
303.15 K	870.73	0.95
313.15 K	861.65	0.823

CCCCCCC(=O)OC [methyl heptanoate] + CCCCCCO
[2]
Conditions	kinematic viscosity [m2/s]	mass density [kg/m3]
293.15 K, x1 = 0.0702	5.11e-06	824.02
293.15 K, x1 = 0.1168	4.4e-06	827.4
293.15 K, x1 = 0.189	3.59e-06	832.46
293.15 K, x1 = 0.3018	2.76e-06	840.04
293.15 K, x1 = 0.3966	2.31e-06	846.13
293.15 K, x1 = 0.4898	1.99e-06	851.87
293.15 K, x1 = 0.594	1.74e-06	858.04
293.15 K, x1 = 0.7085	1.52e-06	864.51
293.15 K, x1 = 0.7917	1.42e-06	869.04
293.15 K, x1 = 0.8937	1.32e-06	874.45
293.15 K, x1 = 0.937	1.29e-06	876.69
293.15 K, x1 = 1	1.26e-06	879.96
303.15 K, x1 = 0.0753	3.81e-06	816.9
303.15 K, x1 = 0.12	3.35e-06	819.99
303.15 K, x1 = 0.1919	2.79e-06	824.84
303.15 K, x1 = 0.2963	2.24e-06	831.61
303.15 K, x1 = 0.4003	1.87e-06	838.05
303.15 K, x1 = 0.4934	1.64e-06	843.6
303.15 K, x1 = 0.5979	1.45e-06	849.6
303.15 K, x1 = 0.6849	1.32e-06	854.38
303.15 K, x1 = 0.8004	1.2e-06	860.53
303.15 K, x1 = 0.8676	1.15e-06	864
303.15 K, x1 = 0.9415	1.11e-06	867.77
303.15 K, x1 = 1	1.09e-06	870.73
313.15 K, x1 = 0.064	3.05e-06	808.63
313.15 K, x1 = 0.1198	2.62e-06	812.36
313.15 K, x1 = 0.1968	2.21e-06	817.35
313.15 K, x1 = 0.2986	1.83e-06	823.7
313.15 K, x1 = 0.3995	1.56e-06	829.76
313.15 K, x1 = 0.5299	1.32e-06	837.23
313.15 K, x1 = 0.6009	1.22e-06	841.13
313.15 K, x1 = 0.6925	1.12e-06	846.03
313.15 K, x1 = 0.8022	1.04e-06	851.72
313.15 K, x1 = 0.872	9.99e-07	855.24
313.15 K, x1 = 0.9368	9.78e-07	858.5
313.15 K, x1 = 1	9.55e-07	861.65

CCCCC(=O)OC [methyl pentanoate]
[1]
Conditions	mass density [kg/m3]	viscosity [mPa·s]
283.15 K	–	0.816
293.15 K	889.75	0.712
298.15 K	–	0.661
303.15 K	879.51	0.623
313.15 K	869.32	0.551

CCCCCCCC [octane]
[1]
Conditions	mass density [kg/m3]	viscosity [mPa·s]
283.15 K	–	0.614
293.15 K	702.54	0.542
298.15 K	–	0.508
303.15 K	694.35	0.483
313.15 K	686.12	0.43

CCCCCCCC [octane] + CCCCCCO
[2], x1 = 1
Conditions	kinematic viscosity [m2/s]	mass density [kg/m3]
293.15 K	7.71e-07	702.54
303.15 K	6.96e-07	694.35
313.15 K	6.27e-07	686.12
